# Measured values as given in patent publication US20250368687A1, “SHORT SYNTHETIC PEPTIDES AND USES THEREOF IN THE TREATMENT OF ENTEROVIRUS INFECTION” (CITY UNIVERSITY OF HONG KONG, priority 2024, published 2025).
# What was measured:
# [1] = system: Hsp27 phosphorylation on Ser 15, 78, 82; experiment: Western blot of Hsp27 phosphorylation in EV-A71-infected RD cells; format: cell-based; conditions: for inhibition of Hsp27 Ser78 phosphorylation: peptide pre-treatment 2 hours
# Method: RD cells were treated with SB203580 at indicated concentration for 2 hours, then infected with EV-A71 at the MOI of 10 for 6 hours. Cell lysates were collected for western blot assay. Hsp27 phosphorylation on Ser 15, 78, 82 were detected by specific antibodies. GAPDH were detected as internal control.
# FIGS. 10A-10K. […] (FIG. 10A) RD cells were pre-treated with peptides S78 or for 2 hours and infected with EV-A71 at the MOI of 10 for 6 hours. Cell lysates were collected for western blot assay. Hsp27 phosphorylation on Ser 15, 78, 82 were detected by specific antibodies. β-Actin were detected as internal control. (FIG. 10B) Densitometric analysis of FIG. 9A. (FIG. 10C) HEK 293T cells were pre-treated with peptides S78 or S78A at the concentration of 25 μM for 2 hours and then co-transfected with Hsp27-WT plasmid (800 ng), pIRES reporter plasmid (200 ng) and 2A^pro-expressing plasmid or 2AC110A-expressing plasmid (200 ng) for 24 h, then the luciferase activity was measured. (FIG. 10D-10E) RD cells were treated with peptides S78 or S78A and then infected with EV-A71. EV-A71 VP1 were detected. (FIG. 10F) RD cells were treated with peptides and then infected with EV-A71 at the MOI of 1 for 12 hours. The EV-A71-induced CPE was captured. (FIG. 10G-10H) Intracellular viral RNA was extracted and quantified by qPCR. (FIG. 10I) Densitometric analysis FIG. 9D-E. (FIG. 10J) RD cells were treated with peptides S78 or and then infected with EV-A71 at the MOI of 1 for 12 hours. Extracellular viral RNA was extracted and quantified by qPCR. (FIG. 10K) Viral titration was calculated by TCID50. The Statistical analyses were carried out using Student's t-test. *: p<0.05, **: p<0.01, ***: p<0.001. Data are expressed as mean ±SD.
# After cell lysis in Nonidet-P40 (NP-40) buffer, the cell lysates were centrifuged, and the concentration was determined by Bradford assay (Bio-Rad). 20 μg of protein was used for 12% SDS-PAGE and transferred onto polyvinylidene fluoride membrane (PVDF) (GE, MA, USA). Following 5% bovine serum albumin (BSA) blocking for 1 hrs, the membrane was incubated with antibodies (1:1000) against Hsp27 (sc-13132), pHsp27-Ser15 (ab76313), pHsp27-Ser78 (ADI-SPA-523), pHsp27-Ser82 (ab155987), VP1 (GTX132339), β-Actin (sc-47778), hnRNP A1 (sc-32301), or GAPDH (sc-32233) overnight in 4° C. After secondary antibodies (HRP-conjugated Affinipure Goat Anti-Mouse IgG(H+L), SA00001-1, and HRP-conjugated Affinipure Goat Anti-Rabbit IgG(H+L), SA00001-2) incubation for 1 hrs, the protein was visualized with a chemiluminescence reagent (PerkinElmer, MA, USA) on Bio-Rad Chemidoc Imaging System. The protein bands were quantified by densitometry with ImageJ if necessary.
# In this example, the effect of EV-A71 infection on Hsp27 phosphorylation was investigated. […] Then, the phosphorylation status of Hsp27 upon virus infection under the treatment with a p38 inhibitor was examined, as the phosphorylation of Hsp27 could be resulted from p38 signaling activation. To this purpose, the cells were first treated with p38 kinase inhibitor −SB203580 at different concentrations (0, 0.25, 0.5, 1, 2, 4, and 8 μM) and the phosphorylation level of Hsp27 upon EV-A71 infection was examined by western blot assay.
# [2] = system: Hsp27 and hnRNP A1 redistribution in RD cells; experiment: Immunofluorescence colocalization assay of Hsp27/hnRNP A1 redistribution, RD cells with or without EV-A71 infection; format: cell-based; conditions: for fraction of Hsp27 overlapping DAPI (M1 colocalization coefficient): EV-A71-infected RD cells; for redistribution of Hsp27 and hnRNP A1 in EV-A71-infected RD cells / localization of Hsp27 and hnRNP A1 in mock RD cells: 25 μM for 2h; for redistribution of Hsp27 and hnRNP A1 in EV-A71-infected RD cells: EV-A71 MOI 40 for 6h; for localization of Hsp27 and hnRNP A1 in mock RD cells: without EV-A71
# Method: The cells on coverslips were infected with EV-A71 at the multiplicity of infection (MOI) of 40 for 6 hrs to assure the high efficiency of viral infection. Then the cells were fixed by 4% paraformaldehyde for 20 min, permeabilized by 0.5% Triton X-100 for 15 min, blocked with 5% BSA for 2 hrs, and stained by incubation with anti-Hsp27 (GTX101145) and anti-hnRNP A1 (sc-32301) antibody, then with Alexa Fluor 488 conjugated anti-rabbit antibody and Alexa Fluor 594 conjugated anti-mouse antibody respectively. After washing four times with 0.2% Triton X-100, the nuclei were stained with DAPI or Hoechst for 5 min. The images were captured by a Nikon A1HD25 High speed and Large Field of View Confocal Microscope. Colocalization analysis was conducted using the JACoP-plugin of the extended ImageJ version Fiji. The M1 colocalization coefficient was computed to illustrate the colocalization levels of Hsp27 and hnRNP A1 overlapped with Hoechst.
# Hsp27 is predominantly located in the cytoplasm, however, stress (e.g., heat shock, virus infection) can induce partial redistribution of Hsp27 from the cytoplasm to the nucleus, concomitantly with its phosphorylation. We thus postulated that the cellular redistribution of Hsp27 may be associated with its phosphorylation upon EV-A71 infection. To verify the hypothesis, RD cells were with SB203580 at 0, 2, 4, and 8 μM for 2 h, and the cells were infected with EV-A71 for 6 h. […] The colocalization of Hsp27 and DAPI, which stands for the level of redistribution of Hsp27, was also quantified. The colocalization coefficient M1 was computed as the fraction of Hsp27 colocalized with DAPI in the total Hsp27 area using the JACoP-plugin in FIJI.
# We hypothesized that peptides S78 and S82A could interfere with Ser78 phosphorylation while peptides S78A (Ser78 replaced by Ala78) would not affect the phosphorylation of Ser78 of Hsp27. […] RD cells were pre-treated with peptide S78, S78A or S82A at the concentrations of 25 μM for 2h and then infected with or without EV-A71 at an MOI of 40 for 6h.
# [3] = SB203580 0-8 μM for 2 hours, EV-A71 MOI 10 for 6 hours, RD cells
# [4] = EV-A71 MOI 10 for 6 hours, RD cells
molecule,measurement,setting,value
"C[S+]([O-])c1ccc(-c2nc(-c3ccncc3)c(-c3ccc(F)cc3)[nH]2)cc1 (stereo not shown) [SB203580, reference compound]",reduction of phosphorylation level at Ser78 (densitometry),"[1]; 8 μM, EV-A71-infected RD cells",over 85%
same,phosphorylation level of Hsp27 at Ser15,[1]; [3],slightly decreased
same,phosphorylation level of Hsp27 at Ser82,[1]; [3],slightly decreased
same,phosphorylation of Hsp27 at Ser78,[1]; [3],markedly suppressed in a dose-dependent manner
same,fraction of Hsp27 overlapping DAPI (M1 colocalization coefficient),"[2]; 0, 2, 4, 8 μM",reduced in a dose-dependent manner
same,nuclear Hsp27 level upon EV-A71 infection,"[2]; 2 μM for 2 h, EV-A71 6 h, RD cells",markedly reduced
same,nuclear relocation of Hsp27 upon EV-A71 infection,"[2]; 4 μM for 2 h, EV-A71 6 h, RD cells",further blocked to an invisible level
same,fraction of Hsp27 overlapping DAPI (M1 colocalization coefficient),[2]; 8 μM,reduced to the basal level
same,Hsp27 translocation to the nucleus without EV-A71 infection,[2]; RD cells without EV-A71 infection,not translocated to the nucleus
Ac-RKKRRQRRRAYSRALARQLSS-NH2 [S78A],inhibition of Hsp27 Ser78 phosphorylation,[1]; [4],less inhibition
same,redistribution of Hsp27 and hnRNP A1 in EV-A71-infected RD cells,[2],only partially reduced
same,localization of Hsp27 and hnRNP A1 in mock RD cells,[2],not affected
Ac-RKKRRQRRRAYSRALSRQLSS-NH2 [S78],inhibition of Hsp27 Ser78 phosphorylation,[1]; [4],dramatically inhibited
same,redistribution of Hsp27 and hnRNP A1 in EV-A71-infected RD cells,[2],dramatically blocked
same,localization of Hsp27 and hnRNP A1 in mock RD cells,[2],not affected
"Ac-RKKRRQRRRYSREANQPKPSPKRESGEE-NH2 [NC, reference compound]",redistribution of Hsp27 and hnRNP A1 in EV-A71-infected RD cells,[2],did not affect
